Measurements from US12053523B2, “Compositions comprising chemotherapeutic agents and checkpoint inhibitors and methods of use” (NORTH CAROLINA STATE UNIVERSITY, priority 2017, dated 2024).
“Also recorded” adds a separate entry of the source. Counter-ions that a name gives are not always drawn.

Tests used:
4T1 cancer cells = experiment: Effects of GEM in 4T1 cells in vitro (PD-L1 by flow cytometry); format: cell-based, mouse; conditions: GEM 0, 1, 2, 5, 10 μM for 48 hours, remaining live cells; hydrochloride
Procedure: The data are shown as mean±SD. Error bars are based on at least triplicate measurements. P value: *, P<0.05.
4T1 cells were reported to express low levels of PD-L1. […] For in vivo study, 4T1 were inoculated subcutaneously into the right flank of female BABL/c mice. After 7 days, the mice bearing 4T1 tumors were treated with GEM@Gel (200 μL, 10% w/w) (GEM: 5 mg/kg), aPD-L1@Gel (aPDL1: 50 μg per mouse) or GEM-aPD-L1@Gel (aPD-L1: 50 μg per mouse, GEM: 5 mg/kg).
The mouse melanoma cell line B16F10 and mouse mammary carcinoma cell line 4T1 were purchased from the American Type Culture Collection. B16F10-luc-GFP and 4T1-luc-GFP cells were gifts from Dr. Leaf Huang at the University of North Carolina at Chapel Hill. B16F10 cells were maintained in Dulbecco's Modified Eagle Medium (Gibco, Invitrogen) supplemented with 10% fetal bovine serum (Invitrogen, Carlsbad, CA), 100 U/mL penicillin (Invitrogen), and 100 […] (Invitrogen). 4T1 cells were maintained in RPMI-1640 Medium (Gibco, Invitrogen) supplemented with 10% fetal bovine serum (Invitrogen, Carlsbad, CA), 100 U/mL penicillin (Invitrogen), and 100 […] (Invitrogen). Master and working cell banks were generated immediately upon receipt. The third and fourth passages were used for the experiments. Cells were tested every three months to exclude the presence of mycoplasma. […]

[1] = GEM and aPDL1 release from PVA-TSPBA hydrogels; format: physicochemical; conditions: 37° C.
Procedure: FIGS. 1A, 1B, 1C, 1D, 1E, and 1F show a schematic and characterization of in situ formed reactive oxygen species (ROS)-responsive PVA-TSPBA scaffold. […] Scale bar, 0.5 μm. Inset: a zoom-in image of the scaffold. Scale bar, 0.1 μm. […] Scale bar, 25 μm. […] FIGS. 1E and IF show cumulative release profiles of GEM (1e) and aPDL1 (1f) from hydrogels when incubated with PBS with or without H2O2 (1 mM).
The TSPBA can be oxidized and hydrolyzed when exposed to H2O2 in the TME, leading to the dissociation of the polymeric scaffold and the release of PVA and payloads. To verify the ROS-sensitive degradability of the hydrogels, samples were immersed in phosphate-buffered saline (PBS) containing […] H2O2 at 37° C. […] The release profiles of GEM and aPD-L1 were quantified using high-performance liquid chromatography (HPLC) and enzyme-linked immunosorbent assay (ELISA), respectively. […] The release pattern was further examined in vivo after the intratumor injection of the drug-loaded scaffolds in the B16F10 mouse model. […] These distinct release dynamics facilitated the delivery of GEM and aPD-L1 into the TME for the intended sequential effects.
Release studies were performed at 37° C. with constant agitation in PBS. […] The released GEM was analyzed by HPLC and the antibody release was determined by Rat IgG total ELISA kit (eBioscience).

B16F10 cancer cells = experiment: Treatment of B16F10 cancer cells in vitro with GEM (flow cytometry, immunofluorescence, western blot); format: cell-based, mouse
Procedure: FIGS. 7A and 7B show the effects of GEM to cancer cells in vitro.
Circulating type 1 T helper (Th1) cytokines were also measured before and after GEM@Gel implantation (FIG. 6g).
The mouse melanoma cell line B16F10 and mouse mammary carcinoma cell line 4T1 were purchased from the American Type Culture Collection. B16F10-luc-GFP and 4T1-luc-GFP cells were gifts from Dr. Leaf Huang at the University of North Carolina at Chapel Hill. B16F10 cells were maintained in Dulbecco's Modified Eagle Medium (Gibco, Invitrogen) supplemented with 10% fetal bovine serum (Invitrogen, Carlsbad, CA), 100 U/mL penicillin (Invitrogen), and 100 […] (Invitrogen). 4T1 cells were maintained in RPMI-1640 Medium (Gibco, Invitrogen) supplemented with 10% fetal bovine serum (Invitrogen, Carlsbad, CA), 100 U/mL penicillin (Invitrogen), and 100 […] (Invitrogen). Master and working cell banks were generated immediately upon receipt. The third and fourth passages were used for the experiments. Cells were tested every three months to exclude the presence of mycoplasma. Authentication of cells was not performed after receipt.

Nc1ccn([C@@H]2O[C@H](CO)[C@@H](O)C2(F)F)c(=O)n1 [GEM, Gemcitabine hydrochloride]
PD-L1 expression in 4T1 cancer cells (4T1 cancer cells): induced PD-L1 expression; also recorded: PD-L1 upregulation
Release from the hydrogel in H2O2 solution compared to control PBS ([1]; H2O2 1 mM vs PBS): in a triggered manner
Release of GEM from the hydrogel ([1]; H2O2 solution (1 mM) in PBS, HPLC): great majority of GEM was released within one day
PD-L1 on surviving B16F10 cells (B16F10 cancer cells; GEM 5 μM, within 24 hours): significant PD-L1 upregulation
Dose and time dependence of PD-L1 expression on B16F10 cancer cells (B16F10 cancer cells; flow cytometry, immunofluorescence, western blot): GEM-dose- and time-dependent
Cell death of B16F10 cancer cells (B16F10 cancer cells; in vitro): resulted in cell death
Expression of PD-L1 in surviving B16F10 cells (B16F10 cancer cells; in vitro): increased expression of PD-L1
